Among the test systems are A549; DU-145; EKVX; K562; KM12; LOX IMVI; M14; MCF7; Malme-3M; NCI-H226; NCI/ADR-RES; OVCAR-5; PC-3; SK-MEL-28; SK-MEL-2; SK-MEL-5; SK-OV-3; SW-620; TK-10.
Assay in all cases: NCI tumour cell line growth inhibition, 48 h

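Where inhibition never reached the appropriate level, the endpoint shown equals the highest concentration tested. Otherwise, values were interpolated linearly from a five-concentration, 48-hour dose response in 96-well plates. Here, GI50 denotes the concentration required for 50% inhibition of growth.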 Active and inactive are the calls of the source. Cut-off read from the data, not from the text of the source: active = GI50 up to about 1.1 µM and inactive = higher.

On to `CC(=O)Nc1c(C)cc(OCC(=O)O)cc1C`, for which the GI50 with A549, in the test with DU-145, in the test with EKVX, in the test on K562, in the test on KM12 and with LOX IMVI was > 100 µM (inactive) each time. Moreover, the GI50 in the test with M14, in the test on MCF7, in the test on Malme-3M, in the test on NCI-H226, with NCI/ADR-RES and in the test with OVCAR-5 was > 100 µM (inactive) in each case. For the same compound, the GI50 in the test on PC-3, with SK-MEL-28, with SK-MEL-2, in the test with SK-MEL-5, in the test with SK-OV-3 and with SW-620 was > 100 µM (inactive) in each case. The GI50 in the test with TK-10 was > 100 µM (inactive).

For `CC(C)=NNc1ncnc2[nH]cnc12`, the GI50 in the test on A549 was 4.89 µM (inactive); with DU-145, 3.85 µM (inactive); in the test on EKVX, 12.9 µM (inactive); with K562, > 19.6 µM (inactive); in the test on KM12, 5.33 µM (inactive); in the test on LOX IMVI, 4.78 µM (inactive). In addition, the GI50 is 4.65 µM (inactive) in the test with M14; 4.07 µM (inactive) with MCF7; 49.7 µM (inactive) in the test with Malme-3M; 12 µM (inactive) in the test with NCI-H226; 5.01 µM (inactive) with NCI/ADR-RES; 4.65 µM (inactive) in the test with OVCAR-5. The GI50 in the test on PC-3 was 9.04 µM (inactive); in the test with SK-MEL-28, 63 µM (inactive); in the test with SK-MEL-2, 3.82 µM (inactive); in the test on SK-MEL-5, 14.5 µM (inactive); in the test on SK-OV-3 it was 3.88 µM (inactive); in the test with SW-620 it was 11.9 µM (inactive). Also, the GI50 with TK-10 is 4.9 µM (inactive).

With `NNC(=O)C(O)C(O)C(=O)NN` (configuration not stated), the GI50 was 66.4 µM (inactive) in the test on A549; > 100 µM (inactive) with DU-145; > 100 µM (inactive) in the test on EKVX; 36.1 µM (inactive) with K562; > 100 µM (inactive) with KM12; 65.9 µM (inactive) in the test on LOX IMVI. In addition, the GI50 in the test with M14, with MCF7, with Malme-3M, in the test on NCI-H226, in the test on NCI/ADR-RES and in the test with OVCAR-5 was > 100 µM (inactive) in each case. The GI50 in the test on PC-3, in the test on SK-MEL-28, in the test on SK-MEL-2, in the test with SK-MEL-5, in the test on SK-OV-3 and with SW-620 was > 100 µM (inactive) throughout. Also, the GI50 in the test with TK-10 was > 100 µM (inactive).

For the compound `CSCCCNC(=O)[C@H](CSC)NC(=O)c1csc(CCNC(=O)[C@@H](NSc2ccccc2[N+](=O)[O-])C(C)O)n1` (some centres not stated), the GI50 with A549, in the test on DU-145, in the test on EKVX, in the test with K562, with KM12 and in the test on LOX IMVI was > 100 µM (inactive) throughout. Also, the GI50 in the test on M14, in the test with MCF7, with Malme-3M, in the test with NCI-H226, in the test on NCI/ADR-RES and in the test on OVCAR-5 was > 100 µM (inactive) in each case. Further, the GI50 in the test on PC-3, in the test with SK-MEL-28, in the test on SK-MEL-2, in the test with SK-MEL-5, in the test with SK-OV-3 and in the test with SW-620 was > 100 µM (inactive) each time. In the test with TK-10, the GI50 was > 100 µM (inactive).

Take `COc1cc2c(cc1OC)-c1cc3ccccc3c(=O)n1CCC2`: the GI50 in the test with A549 was 8.28 µM (inactive); in the test on DU-145, 10.7 µM (inactive); in the test with EKVX, 21.9 µM (inactive); in the test on K562 it was 3.21 µM (inactive); in the test with KM12, 8.47 µM (inactive); in the test with LOX IMVI, 2.66 µM (inactive). In addition, the GI50 is 14.8 µM (inactive) in the test on M14; 7.71 µM (inactive) with MCF7; 20 µM (inactive) in the test with Malme-3M; 12.6 µM (inactive) with NCI-H226; 5.27 µM (inactive) with NCI/ADR-RES; 45.7 µM (inactive) in the test on OVCAR-5. Moreover, the GI50 with PC-3 is 8.51 µM (inactive); in the test with SK-MEL-28, 17.9 µM (inactive); in the test with SK-MEL-2, 29.3 µM (inactive); in the test on SK-MEL-5 it was 11.4 µM (inactive); with SK-OV-3 it was 7.31 µM (inactive); in the test on SW-620, 8.32 µM (inactive). For the same compound, in the test with TK-10, the GI50 was 16.3 µM (inactive).

Consider `CCCC(=O)OC[n+]1ccc(-c2c(COC(=O)NC(C)C)c(COC(=O)NC(C)C)c3n2CCC3)cc1`, for which the GI50 was > 100 µM (inactive) in the test on A549; 31.2 µM (inactive) in the test on DU-145; > 100 µM (inactive) in the test with EKVX; > 100 µM (inactive) in the test on K562; > 100 µM (inactive) with KM12; > 100 µM (inactive) in the test with LOX IMVI. Also, the GI50 in the test on M14 was > 100 µM (inactive); in the test with MCF7, 80.7 µM (inactive); with Malme-3M it was > 100 µM (inactive); in the test with NCI-H226, > 100 µM (inactive); with NCI/ADR-RES, > 100 µM (inactive); with OVCAR-5, > 100 µM (inactive). For the same compound, the GI50 is 92.7 µM (inactive) in the test on PC-3; > 100 µM (inactive) in the test on SK-MEL-28; > 100 µM (inactive) in the test on SK-MEL-2; > 100 µM (inactive) in the test on SK-MEL-5; > 100 µM (inactive) with SK-OV-3; > 100 µM (inactive) with SW-620. In addition, the GI50 in the test on TK-10 was > 100 µM (inactive).

With `CN(C)CCNC(=O)c1cccc2nc3c(nc12)-c1ccccc1C3=O`, the GI50 was 12.5 µM (inactive) in the test with A549; 29.9 µM (inactive) with DU-145; 22.8 µM (inactive) with EKVX; 3.16 µM (inactive) in the test on K562; 10 µM (inactive) with KM12; 2.83 µM (inactive) with LOX IMVI. For the same compound, the GI50 with M14 was 15.8 µM (inactive); in the test on MCF7, 6.34 µM (inactive); with Malme-3M, 9.95 µM (inactive); with NCI-H226, 14.4 µM (inactive); in the test with NCI/ADR-RES, 12.4 µM (inactive); in the test with OVCAR-5, 24.8 µM (inactive). Further, the GI50 is 17.6 µM (inactive) with PC-3; 16 µM (inactive) in the test with SK-MEL-28; 17 µM (inactive) in the test on SK-MEL-2; 12.1 µM (inactive) with SK-MEL-5; 26.7 µM (inactive) in the test with SK-OV-3; 6.43 µM (inactive) in the test on SW-620. Further, in the test with TK-10, the GI50 was 18.6 µM (inactive).

As to `Cc1cccc(NC(=O)/C=C/c2ccc([N+](=O)[O-])cc2)c1`, the GI50 with A549 was > 41.7 µM (inactive); in the test with DU-145, > 38.7 µM (inactive); with EKVX it was 23.2 µM (inactive); in the test with K562, > 29.4 µM (inactive); in the test on KM12, > 33.3 µM (inactive); in the test on LOX IMVI, > 36.3 µM (inactive). Moreover, the GI50 with M14 is > 43.4 µM (inactive); with MCF7, > 22.3 µM (inactive); in the test with Malme-3M, 0.838 µM (active); in the test with NCI-H226, > 46.7 µM (inactive); in the test on NCI/ADR-RES, 29.8 µM (inactive); in the test on OVCAR-5, > 42.6 µM (inactive). Besides, the GI50 in the test on PC-3 is 14.7 µM (inactive); with SK-MEL-28 it was > 42 µM (inactive); in the test on SK-MEL-2 it was 20 µM (inactive); in the test on SK-MEL-5 it was > 36.4 µM (inactive); with SK-OV-3 it was > 46.5 µM (inactive); in the test on SW-620 it was > 45.3 µM (inactive). For the same compound, the GI50 in the test with TK-10 was > 41.5 µM (inactive).

The values above are taken from ChEMBL document CHEMBL1201862, “PubChem BioAssay data set” (2004).
